What was measured:
Lck (h) = biological target: T1, Lck (h) (Homo sapiens, UniProt P06239); test: Kinase profiling (Eurofins Cerep); format: biochemical; conditions: ATP at Km
T1 construct: purchased Eurofins Cerep S.A. (kinase profiler service)
Experimental: (§1) To test the specificity of the novel PIM kinase inhibitor KMU-470, a kinase profiler service was conducted by Eurofins Cerep S.A. The screening was performed with 1 and 10 μM of compound and a concentration of ATP at the Km value for each individual kinase and kinase substrate according to Eurofin’s protocols.

Syk (h) = biological target: T2, Syk (h) (Homo sapiens, UniProt P43405); test: Kinase profiling (Eurofins Cerep); format: biochemical; conditions: ATP at Km
T2 construct: purchased Eurofins Cerep S.A. (kinase profiler service)
Experimental: as §1

SAPK2a (h) = biological target: T3, SAPK2a (h) (Homo sapiens, UniProt Q16539); test: Kinase profiling (Eurofins Cerep); format: biochemical; conditions: KMU-470 10 μM; ATP at Km
T3 construct: purchased Eurofins Cerep S.A. (kinase profiler service)
T3 sequence (Q16539 whole entry): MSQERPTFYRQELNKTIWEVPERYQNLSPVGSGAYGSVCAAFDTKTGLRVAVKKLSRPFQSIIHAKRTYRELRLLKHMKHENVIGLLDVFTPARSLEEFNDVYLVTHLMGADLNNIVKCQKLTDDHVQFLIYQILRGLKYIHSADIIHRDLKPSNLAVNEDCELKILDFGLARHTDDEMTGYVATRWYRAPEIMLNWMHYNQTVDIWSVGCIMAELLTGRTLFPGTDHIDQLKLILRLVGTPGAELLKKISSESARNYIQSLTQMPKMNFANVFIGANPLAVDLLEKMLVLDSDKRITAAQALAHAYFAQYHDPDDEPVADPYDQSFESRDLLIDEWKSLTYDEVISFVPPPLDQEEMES
Experimental: as §1

JNK1α1 (h) = biological target: T4, JNK1α1 (h) (Homo sapiens, UniProt P45983); test: Kinase profiling (Eurofins Cerep); format: biochemical; conditions: KMU-470 10 μM; ATP at Km
T4 construct: purchased Eurofins Cerep S.A. (kinase profiler service)
Experimental: as §1

Blk (h) = biological target: T5, Blk (h) (Homo sapiens, UniProt P51451); test: Kinase profiling (Eurofins Cerep); format: biochemical; conditions: ATP at Km
T5 construct: purchased Eurofins Cerep S.A. (kinase profiler service)
T5 sequence (P51451 whole entry): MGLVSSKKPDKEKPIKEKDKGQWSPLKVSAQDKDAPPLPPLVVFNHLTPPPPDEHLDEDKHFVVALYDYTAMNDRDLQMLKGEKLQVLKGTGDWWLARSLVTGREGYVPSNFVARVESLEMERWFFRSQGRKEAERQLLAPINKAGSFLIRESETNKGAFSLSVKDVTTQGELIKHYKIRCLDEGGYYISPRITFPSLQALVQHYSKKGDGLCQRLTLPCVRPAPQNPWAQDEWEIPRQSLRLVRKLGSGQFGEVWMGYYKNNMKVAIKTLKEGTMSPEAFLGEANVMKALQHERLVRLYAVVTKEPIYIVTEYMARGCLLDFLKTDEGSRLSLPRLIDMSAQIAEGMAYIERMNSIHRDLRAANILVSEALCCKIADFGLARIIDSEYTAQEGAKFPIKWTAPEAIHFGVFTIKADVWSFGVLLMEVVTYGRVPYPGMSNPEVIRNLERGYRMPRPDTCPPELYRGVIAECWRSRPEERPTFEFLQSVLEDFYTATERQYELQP
Experimental: as §1

Itk (h) = biological target: T6, Itk (h) (Homo sapiens, UniProt Q08881); test: Kinase profiling (Eurofins Cerep); format: biochemical; conditions: ATP at Km
T6 construct: purchased Eurofins Cerep S.A. (kinase profiler service)
T6 sequence (Q08881 whole entry): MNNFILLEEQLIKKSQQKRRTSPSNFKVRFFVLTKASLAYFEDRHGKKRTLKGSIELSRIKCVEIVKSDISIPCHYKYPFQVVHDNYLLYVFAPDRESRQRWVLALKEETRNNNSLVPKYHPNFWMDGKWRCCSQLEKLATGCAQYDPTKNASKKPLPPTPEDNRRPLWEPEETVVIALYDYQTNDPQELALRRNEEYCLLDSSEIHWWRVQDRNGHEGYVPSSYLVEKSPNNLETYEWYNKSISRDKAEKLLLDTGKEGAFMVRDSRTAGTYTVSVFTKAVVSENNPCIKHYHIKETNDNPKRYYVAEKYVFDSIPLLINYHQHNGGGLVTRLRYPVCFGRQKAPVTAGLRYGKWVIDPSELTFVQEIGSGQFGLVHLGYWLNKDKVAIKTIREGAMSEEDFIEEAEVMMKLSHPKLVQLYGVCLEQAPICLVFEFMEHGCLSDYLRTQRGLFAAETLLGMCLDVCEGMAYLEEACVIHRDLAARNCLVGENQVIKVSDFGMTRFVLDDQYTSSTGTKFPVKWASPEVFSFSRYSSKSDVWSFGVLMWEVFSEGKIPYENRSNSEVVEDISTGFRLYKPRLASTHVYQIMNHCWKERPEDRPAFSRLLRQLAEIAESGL
Experimental: as §1

Fyn (h) = biological target: T7, Fyn (h) (Homo sapiens, UniProt P06241); test: Kinase profiling (Eurofins Cerep); format: biochemical; conditions: ATP at Km
T7 construct: purchased Eurofins Cerep S.A. (kinase profiler service)
T7 sequence (P06241 whole entry): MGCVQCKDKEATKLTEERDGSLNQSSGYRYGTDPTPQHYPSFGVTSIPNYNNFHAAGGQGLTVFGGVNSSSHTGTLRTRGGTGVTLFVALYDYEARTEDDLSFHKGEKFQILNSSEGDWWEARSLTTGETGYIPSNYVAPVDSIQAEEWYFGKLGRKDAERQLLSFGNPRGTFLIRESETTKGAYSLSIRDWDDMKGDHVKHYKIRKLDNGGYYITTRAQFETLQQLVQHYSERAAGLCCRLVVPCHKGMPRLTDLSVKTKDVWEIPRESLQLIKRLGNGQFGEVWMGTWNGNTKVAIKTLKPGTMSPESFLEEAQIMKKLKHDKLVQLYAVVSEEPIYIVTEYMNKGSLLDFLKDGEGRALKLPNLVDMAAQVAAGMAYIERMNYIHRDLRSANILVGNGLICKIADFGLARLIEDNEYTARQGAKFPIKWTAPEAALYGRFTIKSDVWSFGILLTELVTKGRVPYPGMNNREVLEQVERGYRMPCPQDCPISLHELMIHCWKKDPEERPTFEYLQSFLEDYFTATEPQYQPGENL
Experimental: as §1

BTK (h) = biological target: T8, BTK (h) (Homo sapiens, UniProt Q06187); test: Kinase profiling (Eurofins Cerep); format: biochemical; conditions: KMU-470 10 μM; ATP at Km
T8 construct: purchased Eurofins Cerep S.A. (kinase profiler service)
T8 sequence (Q06187 whole entry): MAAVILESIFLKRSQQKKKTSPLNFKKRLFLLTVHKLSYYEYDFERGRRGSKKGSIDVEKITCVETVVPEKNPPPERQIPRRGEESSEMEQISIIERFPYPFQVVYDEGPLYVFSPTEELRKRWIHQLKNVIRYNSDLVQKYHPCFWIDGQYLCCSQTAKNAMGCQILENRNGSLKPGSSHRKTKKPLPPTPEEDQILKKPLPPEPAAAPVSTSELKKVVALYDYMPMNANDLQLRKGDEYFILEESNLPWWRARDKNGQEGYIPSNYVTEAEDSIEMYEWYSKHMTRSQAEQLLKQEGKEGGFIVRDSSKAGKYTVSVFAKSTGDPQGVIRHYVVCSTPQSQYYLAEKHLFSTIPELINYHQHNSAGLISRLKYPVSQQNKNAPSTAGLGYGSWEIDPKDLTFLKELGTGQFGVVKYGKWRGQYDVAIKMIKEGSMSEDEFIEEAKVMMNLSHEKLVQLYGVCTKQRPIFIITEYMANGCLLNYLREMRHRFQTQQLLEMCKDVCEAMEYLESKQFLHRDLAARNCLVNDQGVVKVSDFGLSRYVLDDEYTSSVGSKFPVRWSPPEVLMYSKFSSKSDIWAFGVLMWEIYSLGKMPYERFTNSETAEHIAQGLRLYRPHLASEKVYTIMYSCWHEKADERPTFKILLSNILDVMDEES
Experimental: as §1

TYK2 (h) = biological target: T9, TYK2 (h) (Homo sapiens, UniProt P29597); test: Kinase profiling (Eurofins Cerep); format: biochemical; conditions: ATP at Km
T9 construct: purchased Eurofins Cerep S.A. (kinase profiler service)
T9 sequence (P29597 whole entry): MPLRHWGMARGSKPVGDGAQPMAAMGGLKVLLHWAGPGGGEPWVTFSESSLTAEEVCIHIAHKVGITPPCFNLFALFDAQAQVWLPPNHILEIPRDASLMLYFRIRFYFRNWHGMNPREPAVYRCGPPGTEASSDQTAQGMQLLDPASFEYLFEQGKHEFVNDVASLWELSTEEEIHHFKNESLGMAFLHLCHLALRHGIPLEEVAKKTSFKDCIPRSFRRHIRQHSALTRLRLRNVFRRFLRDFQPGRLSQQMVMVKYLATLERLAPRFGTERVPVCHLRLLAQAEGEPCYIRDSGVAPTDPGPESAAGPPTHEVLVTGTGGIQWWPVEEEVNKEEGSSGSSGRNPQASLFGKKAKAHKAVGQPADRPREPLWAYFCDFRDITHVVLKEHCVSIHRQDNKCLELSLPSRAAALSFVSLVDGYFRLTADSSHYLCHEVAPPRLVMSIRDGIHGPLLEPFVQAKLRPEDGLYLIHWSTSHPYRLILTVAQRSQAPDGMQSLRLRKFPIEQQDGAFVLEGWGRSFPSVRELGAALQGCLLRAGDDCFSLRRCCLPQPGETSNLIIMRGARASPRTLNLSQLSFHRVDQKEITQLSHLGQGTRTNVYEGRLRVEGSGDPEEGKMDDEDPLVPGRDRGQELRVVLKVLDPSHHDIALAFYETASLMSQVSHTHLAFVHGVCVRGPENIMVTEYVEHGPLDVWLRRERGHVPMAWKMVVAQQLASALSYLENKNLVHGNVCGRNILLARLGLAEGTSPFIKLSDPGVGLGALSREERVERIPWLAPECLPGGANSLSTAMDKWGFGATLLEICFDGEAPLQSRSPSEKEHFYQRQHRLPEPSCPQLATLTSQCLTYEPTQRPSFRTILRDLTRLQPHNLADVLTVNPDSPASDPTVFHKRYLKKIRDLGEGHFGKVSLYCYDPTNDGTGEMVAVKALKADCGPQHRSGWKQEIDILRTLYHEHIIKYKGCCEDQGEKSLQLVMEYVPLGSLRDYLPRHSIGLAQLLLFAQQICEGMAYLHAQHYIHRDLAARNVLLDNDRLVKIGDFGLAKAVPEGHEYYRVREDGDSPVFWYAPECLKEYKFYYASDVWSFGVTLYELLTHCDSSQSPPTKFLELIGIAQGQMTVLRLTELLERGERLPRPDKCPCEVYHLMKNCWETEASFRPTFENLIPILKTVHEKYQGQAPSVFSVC
Experimental: as §1

Hck (h) = biological target: T10, Hck (h) (Homo sapiens, UniProt P08631); test: Kinase profiling (Eurofins Cerep); format: biochemical; conditions: KMU-470 10 μM; ATP at Km
T10 construct: purchased Eurofins Cerep S.A. (kinase profiler service)
Experimental: as §1

MAPK1 (h) = biological target: T11, MAPK1 (h) (Homo sapiens, UniProt P27361); test: Kinase profiling (Eurofins Cerep); format: biochemical; conditions: ATP at Km
T11 construct: purchased Eurofins Cerep S.A. (kinase profiler service)
T11 sequence (P27361 2-379 limits assumed): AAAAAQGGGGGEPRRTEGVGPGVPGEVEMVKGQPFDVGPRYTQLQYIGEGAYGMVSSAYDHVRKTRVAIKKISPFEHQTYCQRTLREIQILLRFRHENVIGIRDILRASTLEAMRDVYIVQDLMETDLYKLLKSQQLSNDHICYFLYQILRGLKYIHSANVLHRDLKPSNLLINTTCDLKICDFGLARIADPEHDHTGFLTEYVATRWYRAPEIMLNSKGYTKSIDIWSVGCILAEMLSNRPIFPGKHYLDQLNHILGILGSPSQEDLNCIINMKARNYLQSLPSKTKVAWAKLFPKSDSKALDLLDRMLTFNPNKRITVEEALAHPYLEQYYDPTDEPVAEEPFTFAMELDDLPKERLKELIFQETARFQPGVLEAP
Experimental: as §1

ASC = test: LPS-induced ASC protein expression in RAW 264.7 cells (Western blot); format: cell-based, murine; conditions: KMU-470 0.1, 0.5, 1 μM 30 min, LPS 50 ng/mL 6 h
Experimental: (§2) Figure 6 Inhibitory effect of KMU-470 on LPS-induced up-regulation of pro-inflammatory cytokines and activation of NLRP3 inflammasome in RAW 264.7 cells. (A–C) Cells were treated with KMU-470 for 30 min and stimulated with LPS 50 ng/mL for 6 h. The levels of IL-1β, TNF-α, and IL-6 were determined using real time PCR. *** p < 0.001, *p < 0.05. (D) Cells were pre-treated with 0.1, 0.5, and 1 μM of KMU-470 for 30 min and treated with LPS 50 ng/mL for 6 h, respectively. Whole cell lysates were isolated and used to measure the protein expression levels of pro-IL-1β and β-actin by Western blot analysis. (E) Cells were pre-treated with 0.1, 0.5, and 1 μM of KMU-470 for 30 min and treated with LPS 50 ng/mL for 6 h, respectively. Whole cell lysates were isolated and used to measure the protein expression levels of […], ASC, pro-caspase-1, pro-IL-1β, and β-actin by Western blot analysis.
(§3) RAW 264.7 cells were pre-treated with KMU-470 (0.5–1 μM/mL) for 24 h and stimulated with LPS (50 ng/mL) for 6 h. […] Immunoreactive proteins were detected using the ELC Western blot detection system kit (Millipore). Signal intensity was measured using the Chemi Image documentation system (Fusion Fx7, VILBER LOUTMAT). Protein expression levels were quantified using the Image J program.

NLRP3 = test: LPS-induced NLRP3 protein expression in RAW 264.7 cells (Western blot); format: cell-based, murine; conditions: KMU-470 0.1, 0.5, 1 μM 30 min, LPS 50 ng/mL 6 h
Experimental: as §2, §3

NO production = test: LPS-induced NO production in RAW 264.7 cells (Griess reagent); format: cell-based, murine; conditions: KMU-470 1 μM 30 min pre-treatment, LPS 50, 200, 1000 ng/mL 24 h
Experimental: Figure 3 Inhibitory effect of KMU-470 on LPS-induced NO production and iNOS protein expression, and cell viability in RAW 264.7 cells. (A) The cells were pre-treated with KMU-470 at a concentration of 1 μM for 30 min and then treated with different concentrations of LPS for 24 h. Nitrite in the culture supernatant was collected and evaluated using Griess reagent. Absorbance was measured at 540 nm. *** p < 0.001, ** p < 0.01, * p < 0.05. (B) Cells are pre-treated with two different concentrations of KMU-470 (0.5 μM and 1 μM) for 30 min, followed by treatment with 1 μg/mL LPS for 24 h. β-actin was used as an internal control for Western blot analysis. (C) Image-J program was used to analyze the relative optical density of the iNOS band. (D) Cells were treated with various concentrations of KMU-470 for 24 h. The effects of KMU-470 on cell proliferation and morphological changes were observed by microscopy (X100). (E) The cell proliferation rate was determined by cell count using a trypan blue exclusion assay. *p < 0.05 (F) Effect of KMU-470 on cell viability was measured by XTT assay. *** p < 0.001.
The amount of nitrite accumulated in the cell culture medium was measured directly using a Griess reagent as an indicator of NO production. […] The OD was measured by spectrophotometer (BMG Labtech, Ortenberg, Germany) at 540 nm. […]

T1 sequence (P06239 whole entry): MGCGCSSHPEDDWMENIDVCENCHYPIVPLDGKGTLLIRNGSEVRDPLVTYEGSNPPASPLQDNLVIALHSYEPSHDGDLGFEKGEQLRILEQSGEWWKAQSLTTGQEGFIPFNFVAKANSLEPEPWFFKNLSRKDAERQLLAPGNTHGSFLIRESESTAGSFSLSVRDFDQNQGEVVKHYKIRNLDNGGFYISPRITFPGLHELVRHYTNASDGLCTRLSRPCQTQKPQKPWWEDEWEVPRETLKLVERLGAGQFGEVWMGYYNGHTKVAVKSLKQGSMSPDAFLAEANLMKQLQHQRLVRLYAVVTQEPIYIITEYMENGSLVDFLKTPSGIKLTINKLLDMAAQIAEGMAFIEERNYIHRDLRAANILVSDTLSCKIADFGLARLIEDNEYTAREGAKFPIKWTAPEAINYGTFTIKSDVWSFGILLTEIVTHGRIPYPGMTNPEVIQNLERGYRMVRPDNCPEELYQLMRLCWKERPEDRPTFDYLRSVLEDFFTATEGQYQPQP

Activity (% Control) Lck (h) (Lck (h); KMU-470 1 μM): 41 % Control | Activity (% Control) Lck (h) (Lck (h); KMU-470 10 μM): 14 % Control | Activity (% Control) Syk (h) (Syk (h); KMU-470 1 μM): 82 % Control | Activity (% Control) Syk (h) (Syk (h); KMU-470 10 μM): 21 % Control | Activity (% Control) SAPK2a (h) (SAPK2a (h)): 77 % Control | Activity (% Control) JNK1α1 (h) (JNK1α1 (h)): 34 % Control | Activity (% Control) Blk (h) (Blk (h); KMU-470 1 μM): 53 % Control | Activity (% Control) Blk (h) (Blk (h); KMU-470 10 μM): 5 % Control | Activity (% Control) Itk (h) (Itk (h); KMU-470 1 μM): 75 % Control | Activity (% Control) Itk (h) (Itk (h); KMU-470 10 μM): 21 % Control | Activity (% Control) Fyn (h) (Fyn (h); KMU-470 1 μM): 97 % Control | Activity (% Control) Fyn (h) (Fyn (h); KMU-470 10 μM): 16 % Control | Activity (% Control) BTK (h) (BTK (h)): 80 % Control | Activity (% Control) TYK2 (h) (TYK2 (h); KMU-470 1 μM): 54 % Control | Activity (% Control) TYK2 (h) (TYK2 (h); KMU-470 10 μM): 14 % Control | Activity (% Control) Hck (h) (Hck (h)): 37 % Control | Activity (% Control) MAPK1 (h) (MAPK1 (h); KMU-470 1 μM): 6 % Control | Activity (% Control) MAPK1 (h) (MAPK1 (h); KMU-470 10 μM): −18 % Control
Structure (SMILES): CN(C)CCNc1cncc(-c2ccc3c(c2)/C(=C/c2cnc[nH]2)C(=O)N3)n1 [KMU-470, (Z)-3-((1H-Imidazol-5-yl)methylene)-5-(6-((2-(dimethylamino)ethyl)amino)pyrazin-2-yl)indolin-2-one]
Expression of ASC protein compared with LPS alone group (ASC): marked decrease | Expression of NLRP3 protein compared with LPS alone group (NLRP3): marked decrease | LPS-induced NO production (NO production): suppressed

From paper PMC7403980, “Anti-Inflammatory Effects of the Novel PIM Kinase Inhibitor KMU-470 in RAW 264.7 Cells through the TLR4-NF-κB-NLRP3 Pathway” (International Journal of Molecular Sciences, 2020)
